Assay results: US20250059180A1 (DONG WHA PHARM. CO., LTD., priority 2022, published 2025)
Structures can show the parent of a compound that is named as a salt. Where two headings read alike, the source gives them in different places.

Test system: Pfeiffer cells, lymphoma cells having EZH2 mutation (A677G)
Test: Proliferation inhibition of cells of hematologic malignancies (CCK-8, 11 days)
Assay type: cell-based
Details: 11 days culture, read-out: Cell proliferation inhibitory effect (IC50)
Method: The growth inhibitory activity of 1,3-benzodioxole derivative compounds represented by chemical formula I of the present invention against Pfeiffer cells, which are lymphoma cells having EZH2 mutation (A677G), was evaluated.
Pfeiffer was cultured using RPMI1640 containing 10% fetal bovine serum. The cells were inoculated into wells of a 96-well culture dish at 10,000 cells each, and cultured for 11 days after treating with the test material for each concentration. For 11 days, the test material was replaced every three to four days. After culturing, the cells were treated with a cell counting kit-8 (CCK-8) reagent for each well, absorbance was measured at 450 nm, and IC50 values for cell proliferation were obtained through curve fitting of non-linear regression in the GraphPad program (GraphPad Prism 5.0 software).

Row | SMILES | IC50 (Homo sapiens, Pfeiffer, 264 h) [nM] | IC50 [nM]
1 | CSc1cc(C)[nH]c(=O)c1CNC(=O)c1cc(-c2cnc(N(C)C)nc2)c2c(c1C)OC(C)([C@H]1CC[C@H](N(C)CC(F)(F)F)CC1)O2 (stereo partly drawn) [Compound 22, 7-(2-(dimethylamino)pyrimidin-5-yl)-2,4-dimethyl-2-(trans-4-(methyl(2,2,2-trifluoroethyl)amino)cyclohexyl)-N-((6-methyl-4-(methylthio)-2-oxo-1,2-dihydropyridin-3-yl)methyl)benzo[d][1,3]dioxole-5-carboxamide] | ≤ 10 | 
2 | CCN1CCC(C2(C)Oc3c(-c4ccc(N(C)CC)nc4)cc(C(=O)NCc4c(SC)cc(C)[nH]c4=O)c(C)c3O2)CC1 (single isomer, unassigned) [Compound 89, 7-(6-(ethyl(methyl)amino)pyridin-3-yl)-2-(1-ethylpiperidin-4-yl)-2,4-dimethyl-N-((6-methyl-4-(methylthio)-2-oxo-1,2-dihydropyridin-3-yl)methyl)benzo[d][1,3]dioxole-5-carboxamide] | ≤ 10 | 
3 | CSc1cc(C)[nH]c(=O)c1CNC(=O)c1cc(-c2cnc(N3CCOCC3)nc2)c2c(c1C)OC(C)(C1CCN(CC(F)(F)F)CC1)O2 (stereo not drawn) [Compound 68, 2,4-dimethyl-N-((6-methyl-4-(methylthio)-2-oxo-1,2-dihydropyridin-3-yl)methyl)-7-(2-morpholinopyrimidin-5-yl)-2-(1-(2,2,2-trifluoro)piperidin-4-yl)benzo[d][1,3]dioxole-5-carboxamide] | ≤ 10 | 
4 | CSc1cc(C)[nH]c(=O)c1CNC(=O)c1cc(-c2cnc(N3CCC(F)(F)CC3)nc2)c2c(c1C)OC(C)([C@H]1CC[C@H](N(C)C)CC1)O2 (stereo partly drawn) [Compound 8, 7-(2-(4,4-difluoropiperidin-1-yl)pyrimidin-5-yl)-2-(trans-4-(dimethylamino)cyclohexyl)-2,4-dimethyl-N-((6-methyl-4-(methylthio)-2-oxo-1,2-dihydropyridin-3-yl)methyl)benzo[d][1,3]dioxole-5-carboxamide] | ≤ 10 | 
5 | CSc1cc(C)[nH]c(=O)c1CNC(=O)c1cc(-c2ccc(N3CC(C)CC(C)C3)nc2)c2c(c1C)OC(C)([C@H]1CC[C@H](N(C)C)CC1)O2 (stereo partly drawn) [Compound 16, 2-(trans-4-(dimethylamino)cyclohexyl)-7-(6-(3,5-dimethylpiperidin-1-yl)pyridin-3-yl)-2,4-dimethyl-N-((6-methyl-4-(methylthio)-2-oxo-1,2-dihydropyridin-3-yl)methyl)benzo[d][1,3]dioxole-5-carboxamide] | ≤ 10 | 
6 | CSc1cc(C)[nH]c(=O)c1CNC(=O)c1cc(-c2ccc(N3CCCCC3)nc2)c2c(c1C)OC(C)(C1CCN(CC(F)(F)F)CC1)O2 (stereo not drawn) [Compound 91, 2,4-dimethyl-N-((6-methyl-4-(methylthio)-2-oxo-1,2-dihydropyridin-3-yl)methyl)-7-(6-(piperidin-1-yl)pyridin-3-yl)-2-(1-(2,2,2-trifluoroethyl)piperidin-4-yl)benzo[d][1,3]dioxole-5-carboxamide] | ≥ 100 | 
7 | CSc1cc(C)[nH]c(=O)c1CNC(=O)c1cc(-c2ccoc2)c2c(c1C)OC(C)([C@H]1CC[C@H](N(C)C)CC1)O2 (stereo partly drawn) [Compound 18, 2-(trans-4-(dimethylamino)cyclohexyl)-7-(furan-3-yl)-2,4-dimethyl-N-((6-methyl-4-(methylthio)-2-oxo-1,2-dihydropyridin-3-yl)methyl)benzo[d][1,3]dioxole-5-carboxamide] | ≤ 10 | 
8 | CSc1cc(C)[nH]c(=O)c1CNC(=O)c1cc(-c2ccc(F)cc2)c2c(c1C)OC(C)([C@H]1CC[C@H](N(C)C)CC1)O2 (stereo partly drawn) [Compound 10, 2-(trans-4-(dimethylamino)cyclohexyl)-7-(4-fluorophenyl)-2,4-dimethyl-N-((6-methyl-4-(methylthio)-2-oxo-1,2-dihydropyridin-3-yl)methyl)benzo[d][1,3]dioxole-5-carboxamide] | ≤ 10 | 
9 | CSc1cc(C)[nH]c(=O)c1CNC(=O)c1cc(-c2ccc(N3CCOCC3)nc2)c2c(c1C)OC(C)(C1CCN(CC(F)F)CC1)O2 (single isomer, unassigned) [Compound 64, 2-(1-(2,2-difluoroethyl)piperidin-4-yl)-2,4-dimethyl-N-((6-methyl-4-(methylthio)-2-oxo-1,2-dihydropyridin-3-yl)methyl)-7-(6-morpholinopyridin-3-yl)benzo[d][1,3]dioxole-5-carboxamide] |  | ≤ 10
10 | CSc1cc(C)[nH]c(=O)c1CNC(=O)c1cc(-c2cnc(N3CCOCC3)nc2)c2c(c1C)OC(C)(C1CCN(CC(F)F)CC1)O2 (single isomer, unassigned) [Compound 71, 2-(1-(2,2-difluoroethyl)piperidin-4-yl)-2,4-dimethyl-N-((6-methyl-4-(methylthio)-2-oxo-1,2-dihydropyridin-3-yl)methyl)-7-(2-morpholinopyrimidin-5-yl)benzo[d][1,3]dioxole-5-carboxamide] |  | ≤ 10
11 | CSc1cc(C)[nH]c(=O)c1CNC(=O)c1cc(-c2cnc(N3CCCCC3)nc2)c2c(c1C)OC(C)([C@H]1CC[C@H](N(C)CC(F)(F)F)CC1)O2 (stereo partly drawn) [Compound 21, 2,4-dimethyl-2-(trans-4-(methyl(2,2,2-trifluoroethyl)amino)cyclohexyl)-N-((6-methyl-4-(methylthio)-2-oxo-1,2-dihydropyridin-3-yl)methyl)-7-(2-(piperidin-1-yl)pyrimidin-5-yl)benzo[d][1,3]dioxole-5-carboxamide] | ≤ 10 | 
12 | CSc1cc(C)[nH]c(=O)c1CNC(=O)c1cc(-c2ccc3occc3c2)c2c(c1C)OC(C)(C1CCN(CC(F)(F)F)CC1)O2 (stereo not drawn) [Compound 96, 7-(benzofuran-5-yl)-2,4-dimethyl-N-((6-methyl-4-(methylthio)-2-oxo-1,2-dihydropyridin-3-yl)methyl)-2-(1-(2,2,2-trifluoroethyl)piperidin-4-yl)benzo[d][1,3]dioxole-5-carboxamide] | ≥ 100 | 
13 | CSc1cc(C)[nH]c(=O)c1CNC(=O)c1cc(-c2ccc(N3C[C@@H](C)O[C@@H](C)C3)nc2)c2c(c1C)OC(C)([C@H]1CC[C@H](N(C)C(=O)C(F)(F)F)CC1)O2 (stereo partly drawn) [Compound 115, 7-(6-((2S,6R)-2,6-dimethylmorpholino)pyridin-3-yl)-2,4-dimethyl-N-((6-methyl-4-(methylthio)-2-oxo-1,2-dihydropyridin-3-yl)methyl)-2-(trans-4-(2,2,2-trifluoro-N-methylacetamido)cyclohexyl)benzo[d][1,3]dioxole-5-carboxamide] | 10 to 100 | 
14 | CCN1CCC(C2(C)Oc3c(-c4cnc(N5CCOCC5)nc4)cc(C(=O)NCc4c(SC)cc(C)[nH]c4=O)c(C)c3O2)CC1 (stereo not drawn) [Compound 74, 2-(1-ethylpiperidin-4-yl)-2,4-dimethyl-N-((6-methyl-4-(methylthio)-2-oxo-1,2-dihydropyridin-3-yl)methyl)-7-(2-morpholinopyrimidin-5-yl)benzo[d][1,3]dioxole-5-carboxamide] |  | ≥ 100

Continued, values first:

Row | IC50 (Homo sapiens, Pfeiffer, 264 h) [nM] | IC50 [nM] | SMILES
15 | ≤ 10 |  | COC(CN(C)[C@H]1CC[C@H](C2(C)Oc3c(-c4ccc(N5C[C@@H](C)O[C@@H](C)C5)nc4)cc(C(=O)NCc4c(SC)cc(C)[nH]c4=O)c(C)c3O2)CC1)OC (stereo partly drawn) [Compound 31, 2-(trans-4-((2,2-dimethoxyethyl)(methyl)amino)cyclohexyl)-7-(6-((2S,6R)-2,6-dimethylmorpholino)pyridin-3-yl)-2,4-dimethyl-N-((6-methyl-4-(methylthio)-2-oxo-1,2-dihydropyridin-3-yl)methyl)benzo[d][1,3]dioxole-5-carboxamide]
16 | ≤ 10 |  | COC(CN1CCC(C2(C)Oc3c(-c4ccc(N5C[C@@H](C)O[C@@H](C)C5)nc4)cc(C(=O)NCc4c(SC)cc(C)[nH]c4=O)c(C)c3O2)CC1)OC (stereo partly drawn) [Compound 41, 2-(1-(2,2-dimethoxyethyl)piperidin-4-yl)-7-(6-((2S,6R)-2,6-dimethylmorpholino)pyridin-3-yl)-2,4-dimethyl-N-((6-methyl-4-(methylthio)-2-oxo-1,2-dihydropyridin-3-yl)methyl)benzo[d][1,3]dioxole-5-carboxamide]
17 | ≤ 10 |  | CCCOCCN(C)[C@H]1CC[C@H](C2(C)Oc3c(-c4ccc(N5C[C@@H](C)O[C@@H](C)C5)nc4)cc(C(=O)NCc4c(SC)cc(C)[nH]c4=O)c(C)c3O2)CC1 (stereo partly drawn) [Compound 30, 7-(6-((2S,6R)-2,6-dimethylmorpholino)pyridin-3-yl)-2,4-dimethyl-2-(trans-4-(methyl(2-propoxyethyl)amino)cyclohexyl)-N-((6-methyl-4-(methylthio)-2-oxo-1,2-dihydropyridin-3-yl)methyl)benzo[d][1,3]dioxole-5-carboxamide]
18 |  | ≤ 10 | CSc1cc(C)[nH]c(=O)c1CNC(=O)c1cc(-c2ccc(N3C[C@@H](C)O[C@@H](C)C3)nc2)c2c(c1C)OC(C)([C@H]1CC[C@H](N(C)CC(F)(F)F)CC1)O2 (single isomer, unassigned) [Compound 107]
19 | ≤ 10 |  | CSc1cc(C)[nH]c(=O)c1CNC(=O)c1cc(-c2ccc(N3C[C@@H](C)O[C@@H](C)C3)nc2)c2c(c1C)OC(C)([C@H]1CC[C@H](N)CC1)O2 (stereo partly drawn) [Compound 100, 2-(trans-4-aminocyclohexyl)-7-(6-((2S,6R)-2,6-dimethylmorpholino)pyridin-3-yl)-2,4-dimethyl-N-((6-methyl-4-(methylthio)-2-oxo-1,2-dihydropyridin-3-yl)methyl)benzo[d][1,3]dioxole-5-carboxamide hydrochloride salt]
20 |  | ≤ 10 | CSc1cc(C)[nH]c(=O)c1CNC(=O)c1cc(-c2ccc(N3C[C@@H](C)O[C@@H](C)C3)nc2)c2c(c1C)OC(C)(C1CCN(CC(F)F)CC1)O2 (single isomer, unassigned) [Compound 47]
21 |  | ≥ 100 | CSc1cc(C)[nH]c(=O)c1CNC(=O)c1cc(-c2ccc(N3C[C@@H](C)O[C@@H](C)C3)nc2)c2c(c1C)OC(C)(C1CCN(CC(F)(F)F)CC1)O2 (single isomer, unassigned) [Compound 45]
